According to patent US6486326B2, “iso-CBI and iso-CI analogs of CC-1065 duocarmycins” (The Scripps Research Institute, priority 1997, dated 2002):

Test system: w794 DNA (SV40 DNA segment, 144 bp)
Assay: DNA alkylation selectivity and efficiency, thermally-induced strand cleavage of w794 DNA
Format: biochemical
Experimental: FIG. 5 illustrates thermally-induced strand cleavage of w794 DNA (SV40 DNA segment, 144 bp, nucleotide nos. 138-5238); DNA-agent incubation for 24 hours at 25° C., removal of unbound agent and 30 minutes of thermolysis (100° C.), followed by denaturing 8% PAGE and autoradiography, lane 1, control DNA; lanes 2-5, Sanger G, C, A, and T sequencing reactions; lanes 6-7 (−)-iso-CBI-TMI (1×10^−3 and 1×10^−4 M); lanes 8-9, (+)-CBI-TMI (1×10^−5 and 1×10^−4 M); lanes 10-11, (+)-duocarmycin SA (1×10^−5 and 1×10^−6).
FIG. 7 illustrates thermally-induced strand cleavage of w794 DNA (SV40 DNA segment, 144 bp, nucleotide nos. 138-5238); DNA-agent incubation for 24 h at 25° C., removal of unbound agent and 30 min of thermolysis (100° C.), followed by denaturing 8% PAGE and autoradiography; lane 1, control DNA; lanes 2-5, Sanger G, C, A, and T sequencing reactions; lanes 6-8 (+)-duocarmycin SA (1×10^−4 to 1×10^−6 M); lanes9-11, seco-iso-CI-TMI (1×10^−3 to 1×10^−5 M).
DNA Alkylation Selectivity and Efficiency: The DNA alkylation properties of the agents were examined within w794 and w836 duplex DNA for which comparative results are available for related agents. (Boger, D. L., et al., J. Am. Chem. Soc. 1994, 116, 11335; Boger, D. L., et al., J. Am. Chem. Soc. 1994, 116, 6461; and Boger, D. L., et al., J. Am. Chem. Soc. 1995, 117, 11647) The alkylation site identification and the assessment of the relative selectivity among the available sites were obtained by thermally-induced strand cleavage of the singly 5′ end-labeled duplex DNA after exposure to the agents. Following treatment of the end-labeled duplex DNA with a range of agent concentrations and temperatures in the dark, the unbound agent was removed by EtOH precipitation of the DNA Redissolution of the DNA in aqueous buffer, thermolysis (100° C., 30 min) to induce strand cleavage at the sites of DNA alkylation, denaturing high-resolution polyacrylamide gel electrophoresis (PAGE) adjacent to Sanger dideoxynucleotide sequencing standards, and autoradiography led to identification of the DNA cleavage and alkylation sites. The full details of this procedure have been disclosed elsewhere. (Boger, D. L., et al., Tetrahedron 1991, 47, 2661.)
DNA Alkylation Studies: Selectivity and Efficiency: Eppendorf tubes containing singly ^32p 5′-end-labeled double-stranded DNA (9 μL) (Boger, D. L., et al., Tetrahedron 1991, 47, 2661.) in TE buffer (10 mM Tris, 1 mM EDTA, pH 7.5) were treated with the agents in DMSO (1 μL, at the specified concentrations). The solutions were mixed by vortexing and brief centrifugation and subsequently incubated at 4° C., 25° C. or 37° C. for 24-72 h. […]

COc1cc2cc(C(=O)N3CC4CC45C(=O)c4ccccc4C=C35)[nH]c2c(OC)c1OC (single isomer, unassigned; (-)) [(−)-iso-CBI-TMI, 2-[(5,6,7-Trimethoxyindol-2-yl)carbonyl]-1,2,9,9a-tetrahydrocyclopropa[c]benzo[f]indol-8-one]
DNA alkylation sequence selectivity compared with (+)-duocarmycin SA: same sequence selectivity
DNA alkylation efficiency, less efficient than (+)-CBI-TMI and (+)-duocarmycin SA (24 h, 25° C.): 50-100 ×
